Test results: the NIST ThermoML archive (doi:10.1016/j.tca.2005.11.005)

Assay: molar heat capacity at constant pressure; xn = mol fraction of the nth substance listed
Details: 101 kPa, Crystal, Small sample (50 mg) DSC

[Ce+4].[O-2].[O-2] [ceric oxide] + [O-2].[O-2].[U+4]
molar heat capacity at constant pressure [J/K/mol]
Details	298 K	300 K	400 K	500 K	600 K	700 K	800 K
x2 = 0	62.6	62.7	68.8	73	76.5	78.6	79.3
x2 = 0.197	62.8	64	73.3	81.2	84.6	84.5	85.2
x2 = 0.491	64.2	64.8	76.8	85.9	89.2	89.6	88.3
x2 = 0.809	70.1	70.4	79.7	86	88.9	90.3	92

[O-2].[O-2].[U+4] [uranium dioxide] + [Ce+4].[O-2].[O-2]
x1 = 1
Details	molar heat capacity at constant pressure [J/K/mol]
298 K	64
300 K	64.1
400 K	72.7
500 K	77.5
600 K	80.4
700 K	82.6
800 K	85.9
